Laboratory results: the NIST ThermoML archive (doi:10.1016/j.jct.2013.05.051)

Experiment: xn = mol fraction of the nth substance listed
Details: Liquid, Vibrating tube method, x2 = 0

CCCCCCC [heptane] + CCCCCCCO
mass density [kg/m3]
Details	298.15 K	313.15 K	333.15 K	353.15 K	373.15 K	393.15 K
100 kPa	679.5	666.6	648.9	631.2	–	–
1000 kPa	680.4	667.6	650	632.1	613.3	593.5
5000 kPa	684.2	671.8	655	637.8	620.1	601.7
10000 kPa	688.6	676.7	660.6	644.3	627.7	610.6
15000 kPa	692.8	681.3	665.8	650.3	634.5	618.4
20000 kPa	696.7	685.6	670.6	655.7	640.7	625.4
25000 kPa	700.4	689.5	675.1	660.8	646.3	631.7
30000 kPa	704	693.5	679.4	665.5	651.6	637.5
35000 kPa	707.4	697.1	683.4	670	656.5	643
40000 kPa	710.7	700.5	687.3	674.1	661.1	648
45000 kPa	713.8	703.9	690.9	678.1	665.5	652.8
50000 kPa	716.8	707.2	694.4	682	669.6	657.2
55000 kPa	719.7	710.3	697.7	685.5	673.5	661.5
60000 kPa	722.5	713.3	701	689.1	677.3	665.5
65000 kPa	725.2	716.1	704.1	692.4	680.8	669.3
70000 kPa	727.9	718.9	707.1	695.7	684.3	673.1
80000 kPa	732.9	724.2	712.8	701.7	690.8	680.1
90000 kPa	737.7	729.3	718.2	707.5	696.9	686.5
100000 kPa	742.3	734	723.2	712.8	702.6	692.5
110000 kPa	746.6	738.6	728.1	717.9	708	698.2
120000 kPa	750.7	742.8	732.6	722.7	713	703.4
130000 kPa	754.6	747	737	727.3	717.9	708.5
140000 kPa	758.4	751.1	741.1	731.6	722.3	713.4
